Data as given in publication PMC2787625, “A Neuronal Acetylcholine Receptor Regulates the Balance of Muscle Excitation and Inhibition in Caenorhabditis elegans” (PLoS Biology, 2009).
Like-named read-outs stand apart in the source and are kept apart here.

Key:
[1] = tested on: ACR-2R (ACR-2-containing acetylcholine receptor: UNC-38, UNC-63, ACR-12, ACR-2, ACR-3); settings: agonist; 1 mM external CaCl2; 500 µM and 1 mM points excluded from fit (open-channel block)
[2] = tested on: ACR-2R (ACR-2-containing acetylcholine receptor: UNC-38, UNC-63, ACR-12, ACR-2, ACR-3); settings: agonist; 1 mM external CaCl2; 500 µM and 1 mM points excluded from fit (open-channel block); n2420 gain-of-function subunit ACR-2(V13′M)

In the case of `CC(=O)OCC[N+](C)(C)C` [acetylcholine], the EC50 [1] is reported as 14.1 ± 1.2 µM and the EC50 [2] is reported as 17.8 ± 1.4 µM.
